Assay results taken from ChEMBL document CHEMBL1133153, “Antitumour benzothiazoles. Part 10: the synthesis and antitumour activity of benzothiazole substituted quinol derivatives” (Bioorg Med Chem Lett, 2000).

Key:
Type in all cases: functional, cell-based
HCT-116 = assay: The compound was tested in vitro for its antitumor activity against human colon cancer cell line HCT116
MDA-MB-468 = assay: The compound was tested in vitro for its antitumor activity against human breast cell line MDA-468
HT-29 = assay: The compound was tested in vitro for its antitumor activity against human colon cancer cell line HT-29
MCF7 = assay: The compound was tested in vitro for its antitumor activity against human breast cell line MCF-7

Row | IC50 (HCT-116) [µM] | IC50 (MDA-MB-468) [µM] | IC50 (HT-29) [µM] | IC50 (MCF7) [µM] | Compound
1 | > 100 | 0.05 | 78.7 | 51.8 | Oc1cccc(-c2nc3ccccc3s2)c1
2 | > 100 | 0.14 | 83.7 | 53.4 | Oc1ccc(-c2nc3ccccc3s2)cc1
